Source: ChEMBL document CHEMBL1201862, “PubChem BioAssay data set” (2004)
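The compound was tested at five concentrations on cells cultured in 96-well plates, with a 48-hour exposure period. Here, GI50 denotes the concentration required for 50% inhibition of growth.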 The source made the active and inactive calls. Cut-off read from the data, not from the text of the source: active = GI50 up to about 1.1 µM and inactive = higher.

Columns and labels:
Assay in all cases: growth of human tumour cells (NCI), 48 h
786-0 = test system: 786-0
A498 = test system: A498
A549 = test system: A549
ACHN = test system: ACHN
BT-549 = test system: BT-549
CAKI-1 = test system: CAKI-1
CCRF-CEM = test system: CCRF-CEM
COLO 205 = test system: COLO 205
DU-145 = test system: DU-145
EKVX = test system: EKVX
HCC 2998 = test system: HCC 2998
HCT-116 = test system: HCT-116
HCT-15 = test system: HCT-15
HL-60 = test system: HL-60
HOP-62 = test system: HOP-62
HOP-92 = test system: HOP-92
HT-29 = test system: HT-29
Hs-578T = test system: Hs-578T
IGROV-1 = test system: IGROV-1
K562 = test system: K562
KM12 = test system: KM12
LOX IMVI = test system: LOX IMVI
M14 = test system: M14
MCF7 = test system: MCF7
MDA-MB-231 = test system: MDA-MB-231
MDA-MB-435 = test system: MDA-MB-435
MDA-N = test system: MDA-N
MOLT-4 = test system: MOLT-4
Malme-3M = test system: Malme-3M
NCI-H226 = test system: NCI-H226
NCI-H23 = test system: NCI-H23
NCI-H460 = test system: NCI-H460
NCI-H522 = test system: NCI-H522
NCI/ADR-RES = test system: NCI/ADR-RES
OVCAR-3 = test system: OVCAR-3
OVCAR-4 = test system: OVCAR-4
OVCAR-5 = test system: OVCAR-5
OVCAR-8 = test system: OVCAR-8
PC-3 = test system: PC-3
RPMI-8226 = test system: RPMI-8226
RXF 393 = test system: RXF 393
SF-268 = test system: SF-268
SF-295 = test system: SF-295
SF-539 = test system: SF-539
SK-MEL-28 = test system: SK-MEL-28
SK-MEL-2 = test system: SK-MEL-2
SK-MEL-5 = test system: SK-MEL-5
SN12C = test system: SN12C
SNB-19 = test system: SNB-19
SNB-75 = test system: SNB-75
SR = test system: SR
SW-620 = test system: SW-620
T47D = test system: T47D
U-251 = test system: U-251
UACC-257 = test system: UACC-257
UACC-62 = test system: UACC-62
UO-31 = test system: UO-31

Structure (SMILES): Cc1c(O)oc2ccccc2c1=O
- GI50 (786-0): > 100 µM (inactive)
- GI50 (A498): > 100 µM (inactive)
- GI50 (A549): > 100 µM (inactive)
- GI50 (ACHN): > 100 µM (inactive)
- GI50 (BT-549): > 100 µM (inactive)
- GI50 (CAKI-1): > 100 µM (inactive)
- GI50 (CCRF-CEM): > 100 µM (inactive)
- GI50 (COLO 205): > 100 µM (inactive)
- GI50 (DU-145): > 100 µM (inactive)
- GI50 (EKVX): > 100 µM (inactive)
- GI50 (HCC 2998): > 100 µM (inactive)
- GI50 (HCT-116): > 100 µM (inactive)
- GI50 (HCT-15): > 100 µM
- GI50 (HL-60): > 100 µM (inactive)
- GI50 (HOP-62): > 100 µM (inactive)
- GI50 (HOP-92): > 100 µM (inactive)
- GI50 (HT-29): > 100 µM (inactive)
- GI50 (Hs-578T): > 100 µM (inactive)
- GI50 (IGROV-1): > 100 µM (inactive)
- GI50 (K562): > 100 µM (inactive)
- GI50 (KM12): > 100 µM (inactive)
- GI50 (LOX IMVI): > 100 µM (inactive)
- GI50 (M14): > 100 µM (inactive)
- GI50 (MCF7): > 100 µM (inactive)
- GI50 (MDA-MB-231): > 100 µM (inactive)
- GI50 (MDA-MB-435): > 100 µM (inactive)
- GI50 (MDA-N): > 100 µM (inactive)
- GI50 (MOLT-4): > 100 µM (inactive)
- GI50 (Malme-3M): > 100 µM (inactive)
- GI50 (NCI-H226): > 100 µM (inactive)
- GI50 (NCI-H23): > 100 µM (inactive)
- GI50 (NCI-H460): > 100 µM (inactive)
- GI50 (NCI-H522): > 100 µM (inactive)
- GI50 (NCI/ADR-RES): > 100 µM (inactive)
- GI50 (OVCAR-3): > 100 µM (inactive)
- GI50 (OVCAR-4): > 100 µM (inactive)
- GI50 (OVCAR-5): > 100 µM (inactive)
- GI50 (OVCAR-8): > 100 µM (inactive)
- GI50 (PC-3): > 100 µM (inactive)
- GI50 (RPMI-8226): > 100 µM (inactive)
- GI50 (RXF 393): > 100 µM (inactive)
- GI50 (SF-268): > 100 µM (inactive)
- GI50 (SF-295): > 100 µM (inactive)
- GI50 (SF-539): > 100 µM (inactive)
- GI50 (SK-MEL-28): > 100 µM (inactive)
- GI50 (SK-MEL-2): > 100 µM (inactive)
- GI50 (SK-MEL-5): > 100 µM (inactive)
- GI50 (SN12C): > 100 µM (inactive)
- GI50 (SNB-19): > 100 µM (inactive)
- GI50 (SNB-75): > 100 µM (inactive)
- GI50 (SR): > 100 µM (inactive)
- GI50 (SW-620): > 100 µM (inactive)
- GI50 (T47D): > 100 µM (inactive)
- GI50 (U-251): > 100 µM (inactive)
- GI50 (UACC-257): > 100 µM (inactive)
- GI50 (UACC-62): > 100 µM (inactive)
- GI50 (UO-31): > 100 µM (inactive)
